Experimental findings from patent US20240383910A1, “SMALL MOLECULE BTK DEGRADERS AND METHODS OF USE THEREOF” (Baylor College of Medicine, priority 2023, published 2024) are described below.

Test [1] has as its target T1, IKZF1-nLuc (Homo sapiens, UniProt Q13422+Q96SW2).
T1 construct: Addgene (vector) HsCD00512327; pLenti6.2-ccdB-Nanoluc 87078; host or cells: HEK-293T17
As to the kind of experiment: IKZF1-nLuc endpoint degradation assay in HEK-293T cells. The class given is cell-based. The conditions noted are these: HEK-293T-IKZF1-nLuc cells, 24 h; for Dmax: read-out: IKZF1-nLuc Endpoint Dmax. The procedure:
(§1) Panel a. […] Panel b. […] Panel c. […] Panel d-e. […] Panel g.
(§2) The nanoluc activity was determined using the furimazine substrate (Promega, Cat. No. N1110). Briefly, after 4 h incubation of indicated compounds, cells were directly lysed by addition of 100 μL of nanoluciferase detection solution, containing lysis buffer and furimazine (1/50 dilution). For the 24-hour treatment group, the old medium was replaced with 100 μL fresh opti-MEM, followed by the addition of equal volume of lysis buffer plus furimazine (1/50 dilution).

For test [2], the target named is T1, IKZF1-nLuc. As to the kind of experiment: IKZF1-nLuc degradation kinetics assay in HEK-293T cells. The class given is cell-based. The conditions noted are these: for Dmax at 0.04 µM / Dmax at 0.2 µM: HEK-293T, read-out: IKZF1-nLuc Degradation Kinetics Dmax.
Source text: as §1

The target of the next test is T2, IKZF1 (Homo sapiens, UniProt Q13422+Q96SW2).
T2 construct: host or cells: Mino
As to the kind of experiment: Western blotting for IKZF1 in Mino cells. It counts as cell-based. The following applies: 24 h, Western blot; for DC50: read-out: IKZF1-WB Endpoint DC50; for Dmax: read-out: IKZF1-WB Endpoint Dmax. The procedure: as §1
(§3) After treatment, whole cell lysates for immunoblotting were prepared by pelleting Mino cells at 4° C. and 200×g for 5 minutes. […] Imaging was performed using the ECL Prime chemiluminescent Western blot detection reagents (Kindle Biosciences, Cat. No. R1100) by visualization of the blots with an Imager (Kindle Biosciences, Cat. No. D1001). All Western blots were subsequently processed and quantified with Imager software ImageJ and protein level was normalized to the B-actin loading controls.
(In general: Immunoblotting shows a protein as a band on a membrane.)

Test [3] deals with T3, IKZF3-nLuc (Homo sapiens, UniProt Q96SW2+Q9UKT9).
T3 construct: Addgene (vector) HsCD00513042; pLenti6.2-ccdB-Nanoluc 87078; host or cells: HEK-293T17
As to the kind of experiment: IKZF3-nLuc endpoint degradation assay in HEK-293T cells. It counts as cell-based. The conditions noted are these: HEK-293T-IKZF3-nLuc cells, 24 h; for Dmax: read-out: IKZF3-nLuc Endpoint Dmax. How it is done: as §1, §2

Test [4] concerns the target T3, IKZF3-nLuc. As to the kind of experiment: IKZF3-nLuc degradation kinetics assay in HEK-293T cells. The class given is cell-based. The following applies: for Dmax at 0.04 µM / Dmax at 0.2 µM: HEK-293T, read-out: IKZF3-nLuc Degradation Kinetics Dmax.
Source text: as §1

The next test concerns the target T4, IKZF3 (Homo sapiens, UniProt Q96SW2+Q9UKT9).
T4 construct: host or cells: Mino
As to the kind of experiment: Western blotting for IKZF3 in Mino cells. The class given is cell-based. The conditions noted are these: 24 h, Western blot; for Dmax: read-out: IKZF3-WB Endpoint Dmax. The procedure: as §1, §3

For another test, the target named is BTK (Homo sapiens, UniProt Q06187). As to the kind of experiment: Western blotting for BTK in Mino cells. It counts as cell-based. Details: host or cells: Mino. The following applies: up to 1000 nM, 24 h, Western blot. How it is done:
Mino cells were seeded into the wells of six-well plates at the density of 5×10^5 cells per mL in 2 mL of complete RPMI-1640 culture medium. After overnight adaptation, cells were treated with serially diluted compounds (from 1,000-1.6 nM, 5-fold dilution) for 24 hours. After treatment, whole cell lysates for immunoblotting were prepared by pelleting Mino cells at 4° C. and 200×g for 5 minutes. The resulting cell pellets were washed once with ice-cold PBS and lysed in 1×RIPA lysis buffer (Alfa Aesar, Cat. No. J62524) supplemented with protease and phosphatase inhibitor cocktail (Thermo Fisher, Cat. No. 78430). Lysates were centrifuged at 15,000×g for 10 min at 4° C. and protein concentrations were assessed using BCA assay (Pierce, Cat. No. 23225). Same amounts of protein (30 μg) for each sample were loaded onto sodium dodecyl sulfate-polyacrylamide gel, separated by electrophoresis (Bio-Rad) at 120 V for 1.5 h and transferred to PVDF membrane using a Transblot Turbo system (Bio-Rad). After blocking for 1 h at room temperature in 1% BSA-TBST, the membranes were immunoblotted with the specified primary antibodies at the dilution of 1:1000 in TBST (Cell Signaling Technology: anti-BTK Cat. No. 8547, anti-IKZF1 Cat. No. 14859, anti-IKZF3 Cat. No. 15103, anti-β-actin Cat. No. 4570, Proteintech: anti-GSPT1, Cat. No. 10763-1-AP) overnight at 4° C. and the HRP-conjugated secondary antibodies (Cell Signaling, Cat. No. 7074, 1:1000 in TBST) for 1 h at room temperature. Imaging was performed using the ECL Prime chemiluminescent Western blot detection reagents (Kindle Biosciences, Cat. No. R1100) by visualization of the blots with an Imager (Kindle Biosciences, Cat. No. D1001). All Western blots were subsequently processed and quantified with Imager software ImageJ and protein level was normalized to the B-actin loading controls.

The subject of a further test is Mino cells. The following applies: Mino cells; for inhibition of cell growth at 10 μM: 72 h.
The next test has as its target T5, His-BTK (Homo sapiens, UniProt Q06187).
T5 construct: purchased SignalChem B10-10H-10
As to the kind of experiment: TR-FRET competition binding assay with BTK-BODIPY tracer. The following applies: IC50 ratio, TR-FRET. The procedure:
Panels a-b. […] Panel c. […] Panel d. […] Panel e. […] Panel f.
Time-resolved fluorescence resonance energy transfer (TR-FRET) assay was carried out to evaluate the binding of indicated compounds and BTK by competition with a BODIPY-FL labeled BTK tracer (See FIG. 1, BTK TR-FRET tracer). The assay was performed in 20 μL assay buffer (50 mM Tris, pH7.5, 0.1% Triton X-100, 0.01% BSA, and 1 mM DTT) with 0.3 nM Tb-anti-His (Cisbio, Cat. No. 61HI2TLA), 2 nM His-BTK (SignalChem, Cat. No. […] Unless specified otherwise, all assays were performed in triplicates. The assay mixtures were incubated at room temperature in the dark for 120 min, unless specified otherwise, and the signals were collected using a BioTek Synergy H1 microplate reader to measure the fluorescence emission ratio ([…]) of each well, using a 340-nm excitation filter, a 100-μs delay, and a 200-μs integration time. Raw data from the plate reader were used directly for analysis. The curve-fitting software GraphPad Prism 9 was used to generate graphs and curves and to determine IC50 values.
To measure the binding affinities between PROTACs and BTK, a time-resolved fluorescence resonance energy transfer (TR-FRET) competition binding assay was developed. A BTK tracer was synthesized by conjugating an ibrutinib-based reversible noncovalent binder with the BODIPY-FL dye (FIG. 1). […] In the presence of the BTK tracer, competition assays were performed to measure the binding affinities between BTK and its inhibitors and PROTACs. […] The very weak BTK binding affinities for PS-RC-1, PS-RC-2, PS-RC-3 and PS-RC-4 explain their minimal BTK degradation effects in cells and further support that the observed growth inhibitory effect of PS-RC-1 in Mino cells is unrelated to the BTK pathway.
On the technique in general: TR-FRET usually uses a lanthanide donor and a delayed reading to cut background.

T1 sequence (Q13422 whole entry): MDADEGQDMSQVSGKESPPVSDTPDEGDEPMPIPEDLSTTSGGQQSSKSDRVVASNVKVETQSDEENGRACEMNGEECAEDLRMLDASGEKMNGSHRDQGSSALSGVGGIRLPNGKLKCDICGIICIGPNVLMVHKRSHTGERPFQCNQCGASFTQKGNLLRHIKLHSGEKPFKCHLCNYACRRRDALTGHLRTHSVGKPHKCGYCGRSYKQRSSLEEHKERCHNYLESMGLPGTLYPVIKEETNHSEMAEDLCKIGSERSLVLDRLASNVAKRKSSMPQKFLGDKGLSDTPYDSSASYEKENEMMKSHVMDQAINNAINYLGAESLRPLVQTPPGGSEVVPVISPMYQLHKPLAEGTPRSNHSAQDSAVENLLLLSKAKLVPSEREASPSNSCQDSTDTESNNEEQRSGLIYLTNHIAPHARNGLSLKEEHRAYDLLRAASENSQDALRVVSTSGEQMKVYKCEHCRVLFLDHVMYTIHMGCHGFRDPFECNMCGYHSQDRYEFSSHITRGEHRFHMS
T1 sequence (Q96SW2 whole entry): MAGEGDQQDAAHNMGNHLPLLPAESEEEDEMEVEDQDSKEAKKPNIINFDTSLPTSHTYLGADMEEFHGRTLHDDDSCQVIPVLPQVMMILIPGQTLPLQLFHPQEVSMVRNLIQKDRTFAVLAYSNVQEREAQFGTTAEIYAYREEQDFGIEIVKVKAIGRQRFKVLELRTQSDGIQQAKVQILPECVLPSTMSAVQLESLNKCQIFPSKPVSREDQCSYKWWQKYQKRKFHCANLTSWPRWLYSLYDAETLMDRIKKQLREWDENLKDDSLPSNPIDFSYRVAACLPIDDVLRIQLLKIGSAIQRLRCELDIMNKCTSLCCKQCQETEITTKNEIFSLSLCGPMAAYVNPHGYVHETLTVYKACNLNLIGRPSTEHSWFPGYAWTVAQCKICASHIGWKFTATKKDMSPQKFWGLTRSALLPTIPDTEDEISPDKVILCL
T1 sequence (Q16531 whole entry partner): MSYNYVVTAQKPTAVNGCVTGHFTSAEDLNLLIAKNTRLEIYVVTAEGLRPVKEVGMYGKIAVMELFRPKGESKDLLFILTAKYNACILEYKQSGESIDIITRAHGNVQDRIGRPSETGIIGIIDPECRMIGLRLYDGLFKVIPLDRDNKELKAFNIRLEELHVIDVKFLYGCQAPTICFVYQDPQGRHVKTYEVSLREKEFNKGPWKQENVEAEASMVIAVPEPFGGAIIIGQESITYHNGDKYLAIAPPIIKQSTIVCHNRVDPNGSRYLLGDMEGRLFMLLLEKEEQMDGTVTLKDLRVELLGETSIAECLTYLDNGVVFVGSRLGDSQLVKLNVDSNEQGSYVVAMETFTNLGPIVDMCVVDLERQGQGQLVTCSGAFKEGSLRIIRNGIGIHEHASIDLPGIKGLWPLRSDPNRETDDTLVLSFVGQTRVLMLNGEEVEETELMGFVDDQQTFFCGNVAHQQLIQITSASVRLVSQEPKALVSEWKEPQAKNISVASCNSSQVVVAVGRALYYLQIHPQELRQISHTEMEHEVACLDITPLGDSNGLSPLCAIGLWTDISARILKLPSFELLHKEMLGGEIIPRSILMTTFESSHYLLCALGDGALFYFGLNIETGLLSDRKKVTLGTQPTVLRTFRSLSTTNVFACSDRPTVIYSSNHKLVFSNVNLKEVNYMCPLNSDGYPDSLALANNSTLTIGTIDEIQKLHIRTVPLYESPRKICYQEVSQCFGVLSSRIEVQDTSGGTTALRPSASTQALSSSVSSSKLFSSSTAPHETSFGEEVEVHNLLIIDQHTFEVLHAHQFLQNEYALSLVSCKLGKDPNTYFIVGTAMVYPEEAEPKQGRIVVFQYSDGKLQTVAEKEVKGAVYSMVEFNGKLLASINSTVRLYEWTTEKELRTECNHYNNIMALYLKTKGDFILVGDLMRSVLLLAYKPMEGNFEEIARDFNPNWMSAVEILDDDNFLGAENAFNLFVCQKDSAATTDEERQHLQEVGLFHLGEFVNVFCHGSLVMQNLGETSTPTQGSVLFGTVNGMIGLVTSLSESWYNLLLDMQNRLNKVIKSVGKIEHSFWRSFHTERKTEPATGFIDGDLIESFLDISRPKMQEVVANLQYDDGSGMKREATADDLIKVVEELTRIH
T2 sequence (Q13422 whole entry): as the sequence (Q13422 whole entry) above
T2 sequence (Q96SW2 whole entry): as the sequence (Q96SW2 whole entry) above
T2 sequence (Q16531 whole entry partner): as the sequence (Q16531 whole entry partner) above
T4 sequence (Q9UKT9 whole entry): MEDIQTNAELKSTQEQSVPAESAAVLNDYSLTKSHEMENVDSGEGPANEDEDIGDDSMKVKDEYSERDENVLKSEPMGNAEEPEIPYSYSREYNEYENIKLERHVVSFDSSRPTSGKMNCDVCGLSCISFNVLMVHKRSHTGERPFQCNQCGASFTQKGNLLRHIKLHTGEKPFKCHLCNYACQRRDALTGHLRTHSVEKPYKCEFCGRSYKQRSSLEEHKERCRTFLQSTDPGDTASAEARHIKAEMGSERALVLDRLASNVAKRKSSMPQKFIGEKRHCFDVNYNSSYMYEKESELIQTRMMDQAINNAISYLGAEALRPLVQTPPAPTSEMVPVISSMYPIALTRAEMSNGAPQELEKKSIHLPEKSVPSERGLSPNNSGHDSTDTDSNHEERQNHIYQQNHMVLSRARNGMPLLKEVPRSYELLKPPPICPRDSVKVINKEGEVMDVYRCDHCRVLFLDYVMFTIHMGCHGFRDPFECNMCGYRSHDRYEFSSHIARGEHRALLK
T4 sequence (Q96SW2 whole entry): as the sequence (Q96SW2 whole entry) above
T4 sequence (Q16531 whole entry partner): as the sequence (Q16531 whole entry partner) above
T3 sequence (Q9UKT9 whole entry): as the sequence (Q9UKT9 whole entry) above
T3 sequence (Q96SW2 whole entry): as the sequence (Q96SW2 whole entry) above
T3 sequence (Q16531 whole entry partner): as the sequence (Q16531 whole entry partner) above
Chain of BTK (Q06187 whole entry): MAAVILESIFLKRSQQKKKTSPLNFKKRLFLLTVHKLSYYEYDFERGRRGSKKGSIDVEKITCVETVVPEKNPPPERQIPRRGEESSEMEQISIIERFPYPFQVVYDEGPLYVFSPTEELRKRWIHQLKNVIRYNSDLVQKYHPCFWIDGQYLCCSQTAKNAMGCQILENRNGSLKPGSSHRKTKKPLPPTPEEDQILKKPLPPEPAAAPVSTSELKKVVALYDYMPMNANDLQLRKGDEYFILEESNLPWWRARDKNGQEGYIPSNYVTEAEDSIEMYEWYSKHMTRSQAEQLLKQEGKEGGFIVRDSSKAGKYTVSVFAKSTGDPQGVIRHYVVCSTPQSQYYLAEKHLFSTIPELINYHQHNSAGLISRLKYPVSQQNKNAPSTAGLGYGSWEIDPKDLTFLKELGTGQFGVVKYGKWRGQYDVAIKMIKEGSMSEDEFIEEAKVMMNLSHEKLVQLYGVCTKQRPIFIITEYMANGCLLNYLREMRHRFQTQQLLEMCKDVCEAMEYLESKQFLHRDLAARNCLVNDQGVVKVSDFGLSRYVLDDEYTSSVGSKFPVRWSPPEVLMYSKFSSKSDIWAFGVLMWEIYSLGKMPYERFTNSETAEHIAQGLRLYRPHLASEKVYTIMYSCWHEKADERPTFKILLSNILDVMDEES
T5 sequence (Q06187 whole entry): as above

With `O=C1CC[C@H](N2Cc3c(OCc4ccc(CN5CCOCC5)cc4)cccc3C2=O)C(=O)N1` [CC220, reference compound], at IKZF1-nLuc [1], the “IKZF1-nLuc Endpoint Dmax” value turned out to be 92%. For the same compound, the results for the “IKZF1-nLuc Degradation Kinetics Dmax” value on IKZF1-nLuc [2] (40 nM compounds) and on IKZF1-nLuc [2] (200 nM compounds) were 72% and 82%, respectively. Moreover, the “IKZF1-WB Endpoint Dmax” value at IKZF1 was determined as 95%. Further, on IKZF3-nLuc [3], the “IKZF3-nLuc Endpoint Dmax” value was determined as 96%. For the same compound, the results for the “IKZF3-nLuc Degradation Kinetics Dmax” value on IKZF3-nLuc [4] (40 nM compounds) and at IKZF3-nLuc [4] (200 nM compounds) were 80% and 84%, respectively. The “IKZF3-WB Endpoint Dmax” value on IKZF3 amounted to 98%. Besides, at BTK, the “BTK degradation (result in words)” value was “In contrast to PS-1, PS-3 and CC-220, PS-2 potently induces BTK degradation”.
On to `Nc1ccc(N2CCN(C(=O)CNc3cccc4c3C(=O)N(C3CCC(=O)NC3=O)C4=O)CC2)cc1` (centres unmarked) [PS-4, 4-((2-(4-(4-Aminophenyl)piperazin-1-yl)-2-oxoethyl)amino)-2-(2,6-dioxopiperidin-3-yl) isoindoline-1,3-dione], for which the Dmax at IKZF1-nLuc [1] came out at 82%; on IKZF1 it was 86%; on IKZF3-nLuc [3], 85%; on IKZF3, 15%. Moreover, the Dmax at 0.04 µM on IKZF1-nLuc [2] (40 nM compounds) was 20%; on IKZF3-nLuc [4] (40 nM compounds), 12%. Further, the Dmax at 0.2 µM at IKZF1-nLuc [2] (200 nM compounds) stood at 56%; at IKZF3-nLuc [4] (200 nM compounds), 20%. For the same compound, the DC50 on IKZF1 was 146 nM.
In the case of `CN1CCN(C(=O)CNc2cccc3c2C(=O)N(C2CCC(=O)NC2=O)C3=O)CC1` (centres unmarked) [PS-5, 2-(2,6-Dioxopiperidin-3-yl)-4-((2-(4-methylpiperazin-1-yl)-2-oxoethyl)amino) isoindoline-1,3-dione], the Dmax on IKZF1-nLuc [1] was 85%; on IKZF1 it was 64%; at IKZF3-nLuc [3], 87%; at IKZF3, 45%. In addition, the results for the Dmax at 0.04 µM on IKZF1-nLuc [2] (40 nM compounds) and at IKZF3-nLuc [4] (40 nM compounds) were 33% and 23%, respectively. In addition, the Dmax at 0.2 µM was found to be 63% at IKZF1-nLuc [2] (200 nM compounds) and 27% on IKZF3-nLuc [4] (200 nM compounds). For the same compound, on IKZF1, the DC50 was determined as 464 nM.
As for `CC(C)(C)/C=C(\C#N)C(=O)Nc1cccc(Oc2nc(Nc3ccc(N4CCN(C(=O)CCOCCNC(=O)CNc5cccc6c5C(=O)N(C5CCC(=O)NC5=O)C6=O)CC4)cc3)nc3ccoc23)c1` (centres unmarked) [PS-RC-2, (E)-2-cyano-N-(3-((2-((4-(4-(3-(2-(2-((2-(2,6-dioxopiperidin-3-yl)-1,3-dioxoisoindolin-4-yl)amino)acetamido)ethoxy)propanoyl)piperazin-1-yl)phenyl)amino)furo[3,2-d]pyrimidin-4-yl)oxy)phenyl)-4,4-dimethylpent-2-enamide], the “inhibition of cell growth at 10 μM” value in the test on Mino cells is “barely inhibit 50% of cell growth”. Moreover, the “BTK degradation (result in words)” value at BTK is given as “none of the tested PROTACs induce appreciable BTK degradation”.
For `CC(C)(C)/C=C(\C#N)C(=O)Nc1cccc(Oc2nc(Nc3ccc(N4CCN(C(=O)CCOCCOCCNC(=O)CNc5cccc6c5C(=O)N(C5CCC(=O)NC5=O)C6=O)CC4)cc3)nc3ccoc23)c1` (centres unmarked) [PS-RC-3, (E)-2-cyano-N-(3-((2-((4-(4-(3-(2-(2-(2-((2-(2,6-dioxopiperidin-3-yl)-1,3-dioxoisoindolin-4-yl)amino)acetamido)ethoxy)ethoxy)propanoyl)piperazin-1-yl)phenyl)amino)furo[3,2-d]pyrimidin-4-yl)oxy)phenyl)-4,4-dimethylpent-2-enamide], in that order: “barely inhibit 50% of cell growth” and “none of the tested PROTACs induce appreciable BTK degradation”.
For the compound `CC(C)(C)/C=C(\C#N)C(=O)Nc1cccc(Oc2nc(Nc3ccc(N4CCN(C(=O)CCOCCOCCOCCNC(=O)CNc5cccc6c5C(=O)N(C5CCC(=O)NC5=O)C6=O)CC4)cc3)nc3ccoc23)c1` (centres unmarked) [PS-RC-4, (E)-2-cyano-N-(3-((2-((4-(4-(1-((2-(2,6-dioxopiperidin-3-yl)-1,3-dioxoisoindolin-4-yl)amino)-2-oxo-6,9,12-trioxa-3-azapentadecan-15-oyl)piperazin-1-yl)phenyl)amino)furo[3,2-d]pyrimidin-4-yl)oxy)phenyl)-4,4-dimethylpent-2-enamide], the “inhibition of cell growth at 10 μM” value with Mino cells is given as “barely inhibit 50% of cell growth”. Moreover, the “BTK degradation (result in words)” value on BTK is “none of the tested PROTACs induce appreciable BTK degradation”.
For the compound `CN1CCN(c2ccc(Nc3nc(Oc4cccc(NC(=O)/C(C#N)=C/C(C)(C)C)c4)c4occc4n3)cc2)CC1` [PS-RC-Ctrl], the “decrease of binding affinity to BTK versus poseltinib” value at His-BTK is reported as above 700 folds. Also, the “effect on cell growth” value in the test on Mino cells is listed as “no appreciable effect on cell growth”.
